From patent US8814837B2, “Simple device for treating tinea unguium” (priority 2008, dated 2014)
“And” between values parts separate entries of the source, which are not always exact repeats. Identical values can stand only once. Counter-ions that a name gives are not always drawn.

Assays:
Format in all cases: in vivo
[1] = Terbinafine hydrochloride content in the nail tip after oral administration of a terbinafine hydrochloride tablet
Procedure: As conventionally used as a treatment method for tinea unguium, a terbinafine hydrochloride tablet was orally administered once a day continuously for 4 weeks. A part of the tip of the nail was then cut and measured for the concentration of the terbinafine hydrochloride in the same manner as in Examples 1 to 3.
In Comparative Example 1, the measurement of terbinafine hydrochloride was carried out after administration period of 4 weeks, because the terbinafine hydrochloride was not detected after administration of 2 days.

[2] = Terbinafine hydrochloride content in the nail tip after the dome-shaped applicator was bonded to the nail; details: 0.15 mL of 1% solution, two days; for terbinafine hydrochloride content in the nail: nail tip, individual samples No. 1-6; for concentration at 2 days: nail (tip), topical, 1% solution, average of No. 1-6
Procedure: The dome-shaped applicator of the first type as shown in FIG. 2 (inside volume: 0.15 mL) was used. A commercially available instantaneous adhesive agent (cyanoacrylate-based adhesive) was applied to the flange of the applicator for bonding. The flange was then hermetically bonded to a surface of a nail. Using a syringe (inside volume: 0.5 mL), 0.15 mL of a solution having a terbinafine hydrochloride content of 1% was injected through the feed port. The feed port was then opened so that the inside and outside of the applicator was in fluid communication with each other. Thus, the inside air was released and the inside of the dome-shaped applicator reached ambient pressure (1.0 atm.). The applicator was maintained as such for two days and then removed from the nail. A part of the tip of the nail was cut and measured for the concentration of the terbinafine hydrochloride.
(§1) The dome-shaped applicator of the second type as shown in FIG. 8 (inside volume: 0.15 mL) was used. A commercially available instantaneous adhesive agent (cyanoacrylate-based adhesive) was applied to the flange of the applicator for bonding. The flange was then hermetically bonded to a surface of a nail. Using a syringe (inside volume: 0.5 mL), 0.15 mL of a solution having a terbinafine hydrochloride content of 1% was injected through the thick film portion near the opening of the dome-shaped applicator.
Because the dome-shaped applicator was hermetically bonded to the nail, the thin film portion in the upper part thereof inflated. […] The dome-shaped applicator was maintained in the hermetically bonded state for two days and then removed from the nail. A part of the tip of the nail was cut and measured for the concentration of the terbinafine hydrochloride.
as §1, with “the third” for “the second”, “FIG. 15” for “FIG. 8”, “0.15 ml.)” for “0.15 mL)”, “applicator. Because the dome-shaped applicator was hermetically bonded to the nail, the thin film portion in the upper part thereof was inverted and protruded as shown in FIG. 15(B).” for “applicator.”
The dome-shaped applicator was maintained in the hermetically bonded state for two days and then removed from the nail. A part of the tip of the nail was cut and measured for the concentration of the terbinafine hydrochloride.

[3] = Terbinafine hydrochloride content in the nail after applying a 1% external medicine to the nail surface; details: 1% external medicine applied to nail surface twice a day for 4 weeks
From the text: Incidentally, a 1% terbinafine hydrochloride external medicine was applied to a surface of a nail twice a day continuously for 4 weeks. A part of the tip of the nail was then cut and measured for the concentration of the terbinafine hydrochloride.

In the case of `CN(C/C=C/C#CC(C)(C)C)Cc1cccc2ccccc12` [terbinafine hydrochloride], the “terbinafine hydrochloride content in the nail” value ([1]; Comparative Example 1: tablet orally once a day for 4 weeks, nail tip, individual samples No. 1-6, hydrochloride) was 0.24 ng/mg and 0.38 ng/mg and 0.15 ng/mg and 0.28 ng/mg and 0.45 ng/mg and 0.11 ng/mg, the concentration at 4 weeks ([1]; human, nail (tip), po, Comparative Example 1: tablet orally once a day for 4 weeks, average of No. 1-6) was 380 ng/g and the “terbinafine hydrochloride detected in the nail” value ([1]; oral tablet, after administration of 2 days) was “not detected”. For the same molecule, the “terbinafine hydrochloride content in the nail” value ([2]; Example 1: first-type applicator, ambient pressure (1.0 atm)) was 27.0 ng/mg and 40.8 ng/mg and 67.6 ng/mg and 42.9 ng/mg and 52.0 ng/mg and 32.4 ng/mg, the “terbinafine hydrochloride content in the nail” value ([2]; Example 2: second-type applicator, inside pressure 1.3 atm) was 43.7 ng/mg and 66.1 ng/mg and 88.8 ng/mg and 68.6 ng/mg and 104.9 ng/mg and 38.9 ng/mg and the “terbinafine hydrochloride content in the nail” value ([2]; Example 3: third-type applicator, inside pressure 1.3 atm) was 41.5 ng/mg and 67.2 ng/mg and 86.3 ng/mg and 70.2 ng/mg and 75.8 ng/mg and 42.3 ng/mg. The concentration at 2 days ([2]; Example 1: first-type applicator, 1.0 atm) was 43800 ng/g, the concentration at 2 days ([2]; Example 2: second-type applicator, 1.3 atm) was 68500 ng/g and the concentration at 2 days ([2]; Example 3: third-type applicator, 1.3 atm) was 63900 ng/g. The “penetration of terbinafine hydrochloride into a surface region of the nail” value [3] was “slightly penetrate” and the “terbinafine hydrochloride detected in a deep part of the nail” value [3] was “Almost no terbinafine hydrochloride was detected”.
